From patent US20220041616A1, “SPIRO COMPOUND AND MEDICAL USES THEREOF” (The National Institutes of Pharmaceutical R&D Co., Ltd., priority 2018, published 2022)

Columns and labels:
ACC1 = molecular target: T1, ACC1 (Homo sapiens, UniProt Q13085); test: In vitro inhibition of ACC1 activity, ADP-Glo Kinase Analysis; type: biochemical; conditions: 1 nM ACC1, 10 μM acetyl-CoA, 20 μM ATP
T1 construct: purchased BPS bioscience
Description: ADP-Glo™ Kinase Analysis Kit (Promega) is used for the in vitro analysis of the inhibitory effect of the present compound on ACC1 or ACC2. ADP-Glo™ Kinase Analysis is a kinase detection analysis of luminescence method. ADP is produced in the process of catalyzing the substrate by ACC. ADP is converted into ATP which is then converted into light by Ultra-Glo™ luciferase. ADP is quantified by detecting the light signal, thus the enzyme activity can be measured by quantification of the ADP amount produced during the enzyme reaction. The analysis is carried out in two steps: in the first step, after the kinase reaction, a portion of ADP-Glo™ reagent equal in volume to the kinase reaction system is added to terminate the reaction and consume the remaining ATP; in the second step, a kinase detection reagent is added, which not only converts ADP into ATP, but also uses a coupled luciferase/luciferin reaction to detect newly synthesized ATP.
a. 10 mM compound stock solution (the present compound was dissolved in 100% DMSO to prepare the 10 mM stock solution) was diluted 50-fold to 200 μM with 100% DMSO, and then diluted in equal proportions (1:3) in a 96-well dilution plate (249944, Nunc). The gradient concentrations of the compound were 200 μM, 66.67 μM, 22.22 μM, 7.41 μM, 2.47 μM, 0.823 μM, 0.274 μM, 0.0914 μM, 0.0305 μM, 0.0102 μM, 0.00339 μM and 0.00113 μM.
b. 4.5 μL ACC1 working solution (BPS bioscience) (2.22 nM) was added to each well of a 384-well test plate (6007290, Perkin Elmer).
c. 0.5 μL of the serially diluted compound (prepared in step a) was added to each well of the 384-well test plate, which was centrifuged at 1000 rpm for 1 min and then incubated at room temperature for 15 min. The reaction system with compound GS-0976 at a final concentration of 0.1 μM was used as positive control; the reaction system with no compound but DMSO at a final concentration of 5% was used as negative control.
d. In the 384-well test plate (prepared in step c), 5 μL of the substrate working solution was added to each well to start the enzymatic reaction. The plate was centrifuged at 1000 rpm for 1 min and then incubated at room temperature for 30 min. The final concentration of each component in the ACC1 reaction system: 1 nM ACC1, 10 μM acetyl-CoA, 30 mM NaHCO3, and 20 μM ATP. The final concentration of each component in the ACC2 reaction system: 1.1 nM ACC2, 20 μM acetyl-CoA, 20 mM NaHCO3, and 15 μM ATP. Final concentrations of test compounds: 10 μM, 3.33 μM, 1.11 μM, 0.37 μM, 0.123 μM, 0.0411 μM, 0.0137 μM, 0.00457 μM, 0.00152 μM, 0.00051 μM, 0.00017 μM and 0.000056 μM. The final concentration of DMSO was 5% (v/v).
e. 10 μL of ADP-Glo reagent was added to each well of the 384-well test plate (prepared in step d), which was centrifuged at 1000 rpm for 1 min and then incubated at room temperature for 40 min.
f. 20 μL of kinase detection reagent was added to each well of the 384-well test plate (prepared in step e), which was centrifuged at 1000 rpm for 1 min and then incubated at room temperature for 40 min.
g. The chemiluminescence signal was detected with Perkin Elmer EnVision 2104.
ACC1 working solution and substrate working solution were both prepared with 1× kinase reaction buffer. The buffer was consisting of 50 mM HEPES buffer, 2 mM magnesium chloride, 0.01% BRIJ-35, 2 mM potassium citrate, 50 μg/mL BSA and 2 mM DTT.
The average value of the positive and negative control well and the standard deviation were calculated. The inhibition percentage was calculated according to the following formula: 100×[1−(compound−average value of positive control)/(average value of negative control-average value of positive control)].
IC50 of the compound was obtained using GraphPad Prism 6 software according to the following nonlinear fitting formula:
Y=Bottom+(Top−Bottom)/(1+10^((Log IC50−X)×Hillslope)), […]

patients = conditions: 10 patients, 20 mg orally once a day for 12 weeks; cited from earlier work
[1] = tested on: patients with non-alcoholic steatohepatitis (NASH); conditions: cited from earlier work

## COc1ccccc1[C@H](CN1C(=O)C2(CCN(C(=O)C(=O)O)CC2)C(=O)c2c1sc(-c1ncco1)c2C)OC1CCOCC1 [Compound 27, (R)-2-(7′-(2-(2-methoxyphenyl)-2-((tetrahydro-2H-pyran-4-yl)oxy)ethyl)-3′-methyl-2′-(oxazol-2-yl)-4′,6′-dioxo-6′,7′-dihydro-4′H-spiro[piperidine-4,5′-thieno[2,3-d]pyridin]-1-yl)-2-oxoacetic Acid]
ACC1
  IC50: < 10 nM

## COC(=O)N1CCC2(CC1)C(=O)c1c(sc(-c3ncco3)c1C)N(C[C@H](OC1CCOCC1)c1ccccc1OC)C2=O [Compound 28, methyl (R)-7′-(2-(2-methoxyphenyl)-2-((tetrahydro-2H-pyran-4-yl)oxy)ethyl)-3′-methyl-2′-(oxazol-2-yl)-4′,6′-dioxo-6′,7′-dihydro-4′H-spiro[piperidine-4,5′-thieno[2,3-d]pyridine]-1-carboxylate]
ACC1
  IC50: < 10 nM

## COc1ccccc1[C@H](CN1C(=O)C2(CCN(C(=O)NCC(=O)O)CC2)C(=O)c2c1sc(-c1ncco1)c2C)OC1CCOCC1 [Compound 29, (R)-(7′-(2-(2-methoxyphenyl)-2-((tetrahydro-2H-pyran-4-yl)oxy)ethyl)-3′-methyl-2′-(oxazol-2-yl)-4′,6′-dioxo-6′,7′-dihydro-4′H-spiro[piperidine-4,5′-thieno[2,3-d]pyridine]-1-carbonyl)glycine]
ACC1
  IC50: < 10 nM

## COc1ccccc1[C@H](CN1C(=O)C2(CCN(S(=O)(=O)O)CC2)C(=O)c2c1sc(-c1ncco1)c2C)OC1CCOCC1 [Compound 30]
ACC1
  IC50: < 10 nM

## COc1ccccc1[C@H](CN1C(=O)C2(CCN(C(N)=O)CC2)C(=O)c2c1sc(-c1ncco1)c2C)OC1CCOCC1 [Compound 31]
ACC1
  IC50: < 10 nM

## CNC(=O)N1CCC2(CC1)C(=O)c1c(sc(-c3ncco3)c1C)N(C[C@H](OC1CCOCC1)c1ccccc1OC)C2=O [Compound 32]
ACC1
  IC50: < 10 nM

## COc1ccccc1[C@H](CN1C(=O)C2(CCN(C(=O)NCCO)CC2)C(=O)c2c1sc(-c1ncco1)c2C)OC1CCOCC1 [Compound 33]
ACC1
  IC50: < 10 nM

## COc1ccccc1[C@H](Cn1c(=O)n(C(C)(C)C(=O)O)c(=O)c2c(C)c(-c3ncco3)sc21)OC1CCOCC1 [GS-0976]
patients
  liver fat content and non-invasive fibrosis markers: statistically significant improvements
[1]; 12th week, MRI-PDFF
  relative decrease of liver fat content: 43%
[1]; 12th week, baseline 3.4 kPa, p=0.049
  median cirrhosis, non-invasive marker of fibrosis, by magnetic resonance elastography (MRE): 3.1 kPa
[1]; 12th week, baseline 15.7%, p=0.006
  liver fat content measured by MRI-PDFF: 9.0%
[1]; after 12 weeks
  decrease of the amount of denovo fat synthesis from the baseline level, median: 29%
[1]; most common adverse events nausea, abdominal pain and diarrhea
  tolerability: well tolerated
